From patent publication US8455495B2, “Pyridazino-pyridinone compounds and methods of use” (Amgen Inc., priority 2008, dated 2013)
Where two headings read alike, the source gives them in different places.

How the values were obtained:
[1] = system: TNF-α production by LPS-activated THP1 cells; experiment: Lipopolysaccharide-activated THP1 cell TNF production assay; format: cell-based; conditions: Homo sapiens, read-out: IC50 in THP-1 cellular TNF production assay
Procedure: Lipopolysaccharide-Activated THP1 Cell TNF Production Assay
THP1 cells were resuspended in fresh THP1 media (RPMI 1640, 10% heat-inactivated FBS, 1×PGS, 1×NEAA, plus 30 μM βME) at a concentration of 1.5×10^6 cells per mL. One hundred microliters of cells per well were plated in a polystyrene 96-well tissue culture plate. 1.5 micrograms per mL of bacterial LPS was prepared in THP1 media and transferred to the first 11 columns of a 96-well polypropylene plate. Column 12 contained only THP1 media for the LO control. Compounds were dissolved in 100% DMSO and serially diluted 3 fold in a polypropylene 96-well microtiter plate (drug plate). Columns 6 and 12 were reserved as controls (HI controls and LO controls respectively) and contained only DMSO. 10 μL of LPS followed by one microliter of inhibitor compound from the drug plate was transferred to the cell plate. The treated cells were induced to synthesize and secrete TNF-α in a 37° C. humidified incubator with 5% CO2 for 3 hours. Fifty microliters of conditioned media was transferred to a 96-well MULTI-ARRAY™ 96-well small spot plate—custom coated with MAB610 containing 100 μL of 2× Read Buffer P supplemented with 0.34 nM AF210NA polyclonal Ab labeled with ruthenium (MSD—Sulfo-TAG™—NHS ester). After an overnight incubation at room temperature with shaking, the reaction was read on the Sector Imager™ 6000. […] The amount of secreted TNF-α in the presence of test compounds compared with that in the presence of DMSO vehicle alone (HI control) was calculated using the formula: % control (POC)=(cpd−average LO)/(average HI−averageLO)*100. Data (consisting of POC and inhibitor concentration in μM) was fitted to a 4-parameter equation (y=A+((B−A)/(1+((x/C)^D))), where A is the minimum y (POC) value, B is the maximum y (POC), C is the x (cpd concentration) at the point of inflection and D is the slope factor) using a Levenburg-Marquardt non-linear regression algorithm.

recombinant human p38α = recombinant human p38α (Homo sapiens, UniProt Q16539); experiment: Purified and activated recombinant human p38α HTRF assay; format: biochemical; conditions: 1 nM p38α, 50 μM ATP, GST-ATF2 substrate, read-out: p38a IC50
Chain of recombinant human p38α (Q16539 whole entry): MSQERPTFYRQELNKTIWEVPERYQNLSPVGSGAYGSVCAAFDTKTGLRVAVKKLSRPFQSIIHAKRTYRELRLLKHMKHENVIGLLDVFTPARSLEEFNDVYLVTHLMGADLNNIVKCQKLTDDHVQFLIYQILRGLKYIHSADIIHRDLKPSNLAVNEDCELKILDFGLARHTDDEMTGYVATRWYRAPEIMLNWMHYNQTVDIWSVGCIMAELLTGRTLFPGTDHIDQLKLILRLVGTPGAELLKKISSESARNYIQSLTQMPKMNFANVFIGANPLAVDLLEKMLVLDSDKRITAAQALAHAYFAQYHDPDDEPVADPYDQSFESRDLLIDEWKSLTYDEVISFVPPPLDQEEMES
Procedure: Purified and Activated Recombinant Human p38α Assay Kinase Reaction Buffer: […] HTRF Detection Buffer: […] Serial Dilution of Compounds: […] Columns 6 and 12 (HI controls and LO controls respectively) in the drug plate were reserved as controls and contained only DMSO. Kinase Reaction: […] See table below for actual concentrations. In the absence of substrate, the background was measured as LO control. […] Assay Reagent Concentrations: […] HTRF Detection: […] After 60 minutes incubation at room temperature, the assay plate was read in a Discovery Plate Reader. The wells were excited with coherent 320 nm light and the ratio of delayed ([…] post excitation) emissions at […] (native europium fluorescence) and 665 nm (europium fluorescence transferred to allophycocyanin-an index of substrate phosphorylation) was determined (Park et al, 1999). Data Analysis: […] Data (consisting of POC and inhibitor concentration in μM) was fitted to a 4-parameter equation ([…]))), where A is the minimum y (POC) value, B is the maximum y (POC), C is the x (compound concentration) at the point of inflection and D is the slope factor, using a Levenburg-Marquardt non-linear regression algorithm. The inhibition constant (Ki) of the inhibitor was estimated from the IC50 (compound concentration at the point of inflection C) using the Cheng-Prussof equation: […] All results were expressed as the mean±the standard error of the mean. Data acquisition and non-linear regression algorithms were performed using Activity Base v5.2 and XL-fit software v4.1 respectively. All data was archived using Activity Base v5.2 software.

[2] = system: production of IL-1β, IL-6, and TNF-α by PBMC activated with LPS; experiment: Lipopolysaccharide-activated PBMC cytokine production assay; format: cell-based; conditions: Homo sapiens, read-out: IC50 in PBMC cytokine production assay
Procedure: Lipopolysaccharide-Activated Pbmc Cytokine Production Assay
Test compounds were evaluated in vitro for the ability to inhibit the production of IL-1β, IL-6, and TNF-α by PBMC activated with bacterial lipopolysaccharide (LPS). Fresh leukocytes were obtained from a local blood bank, and peripheral blood mononuclear cells (PBMCs) were isolated by density gradient centrifugation on Ficol-Paque Plus (Pharmacia).
Preparation of Test Compound Stock Solutions
All reagents were prepared in RPMI 1640+10% v/v human AB serum+1× Pens/Strep/Glu (assay medium). Test compounds were dissolved in 100% DMSO and serially diluted in 96-well polypropylene round bottom micro titer plates (drug plate). Serial dilutions were then diluted 1:250 into assay medium to a 4× working concentration. Compound serial dilutions were half-log, 10 point titrations with a final starting concentration of 1 μM.
Treatment of Cells with Test Compounds and Activation with Lipopolysaccharide
LPS was prepared to a 4× concentration in assay medium. 100 μl of PBMC (1×10^6 cells/ml) were plated in a 96-well polystyrene flat bottom micro titer tissue culture plate and incubated with 50 μl of 4× compound serial dilution for 1 hour at 37° C., 5% CO2 in a tissue culture incubator. 50 μl 4×LPS or control was added and the plates were incubated at 37° C., 5% CO2 in a tissue culture incubator for 18 hours. The final DMSO concentration was 0.1%. The total volume was 200 μL. The final LPS concentration was 100 ng/mL. After 18 hours culture supernatants were removed and IL-1β, IL-6, and TNF-α presence in the supernatants was quantified using MSD ECL based technology.
20 μL of culture supernatant were added to MSD plates, and incubated for one hour at room temperature. 20 μL of detection antibody diluted in antibody diluent (1 μg/mL), and 110 μL of 2× Read Buffer P was added, and incubated for one hour at RT. Electrochemiluminescence was measured using the SECTOR HTS Imager (MSD, Gaithersburg, Md.).
Compound IC50 values were calculated as follows: The proportion of cytokine production in the presence of compound compared to the cytokine production in the presence of the DMSO vehicle alone (Hi control) was calculated using the formula: Percent Control (POC)=(compound−average Lo)/(average Hi−average Lo)*100.

[3] = THP-1, THP1 cells, LPS, 3 hours

Compound	IC50 [1, 3]	IC50 (recombinant human p38α)	IC50 ([2]; LPS 100 ng/mL, 18 hours)	IC50 ([1]; THP-1, 3 h)	IC50 ([2]; 18 h)
Cc1ccc(C(=O)NC2(C)CC2)cc1-c1cc2cnnc(-c3ccc(F)cc3F)c2n(C)c1=O [Example 29, 3-(8-(2,4-difluorophenyl)-1-methyl-2-oxo-1,2-dihydropyrido[2,3-d]pyridazin-3-yl)-4-methyl-N-(1-methylcyclopropyl)benzamide]	≤ 1000 nM	3 nM	≤ 1000 nM		
Cc1ccc(C(=O)Nc2ccon2)cc1-c1cc2cnnc(-c3ccccc3Cl)c2n(C)c1=O [Example 25, 3-(8-(2-chlorophenyl)-1-methyl-2-oxo-1,2-dihydropyrido[2,3-d]pyridazin-3-yl)-N-3-isoxazolyl-4-methylbenzamide]	≤ 1000 nM	0.9 nM	≤ 1000 nM		
Cc1cc(F)ccc1-c1nncc2cc(-c3cc(C(=O)NC4CC4)cc(F)c3C)c(=O)n(C)c12 [Example 16, N-cyclopropyl-3-fluoro-5-(8-(4-fluoro-2-methylphenyl)-1-methyl-2-oxo-1,2-dihydropyrido[2,3-d]pyridazin-3-yl)-4-methylbenzamide]	≤ 1000 nM	3 nM	≤ 1000 nM		
Cc1ccc(C(=O)NC2CC2)cc1-c1cc2cnnc(-c3ccccc3Cl)c2n(C)c1=O [Example 8, 3-(8-(2-chlorophenyl)-1-methyl-2-oxo-1,2-dihydropyrido[3,2-d]pyridazin-3-yl)-N-cyclopropyl-4-methylbenzamide]		1.6 nM		≤ 1000 nM	≤ 1000 nM
Cc1c(F)cc(C(=O)NC2CC2)cc1-c1cc2cnnc(-c3ccccc3C(F)(F)F)c2n(C)c1=O [Example 11, N-cyclopropyl-3-fluoro-4-methyl-5-(1-methyl-2-oxo-8-(2-(trifluoromethyl)phenyl)-1,2-dihydropyrido[3,2-d]pyridazin-3-yl)benzamide]	≤ 1000 nM	2.4 nM	≤ 1000 nM		
CCn1c(=O)c(-c2cc(C(=O)NC3CC3)ccc2C)cc2cnnc(-c3ccc(F)cc3F)c21 [Example 23, N-cyclopropyl-3-(8-(2,4-difluorophenyl)-1-ethyl-2-oxo-1,2-dihydropyrido[2,3-d]pyridazin-3-yl)-4-methylbenzamide]	≤ 1000 nM	1.5 nM	≤ 1000 nM		
Cc1ccc(C(=O)NC2CC2)cc1-c1cc2cnnc(-c3ccccc3C)c2n(C)c1=O [Example 6, N-cyclopropyl-4-methyl-3-(1-methyl-2-oxo-8-o-tolyl-1,2-dihydropyrido[3,2-d]pyridazin-3-yl)benzamide]		11.4 nM		≤ 1000 nM	≤ 1000 nM
Cc1ccc(C(N)=O)cc1-c1cc2cnnc(-c3ccc(F)cc3F)c2n(C)c1=O [Example 2, 3-(8-(2,4-difluorophenyl)-1-methyl-2-oxo-1,2-dihydropyrido[3,2-d]pyridazin-3-yl)-4-methylbenzamide]		3 nM		≤ 1000 nM	≤ 1000 nM
Cc1ccc(C(=O)NC2CC2)cc1-c1cc2cnnc(-c3ccccc3C(F)(F)F)c2n(C)c1=O [Example 10, N-cyclopropyl-4-methyl-3-(1-methyl-2-oxo-8-(2-(trifluoromethyl)phenyl)-1,2-dihydropyrido[3,2-d]pyridazin-3-yl)benzamide]	≤ 1000 nM	2.9 nM	≤ 1000 nM		
Cc1ccccc1-c1nncc2cc(-c3cc(C(=O)NC4CC4)cc(F)c3C)c(=O)n(C)c12 [Example 7, N-cyclopropyl-3-fluoro-4-methyl-5-(1-methyl-2-oxo-8-o-tolyl-1,2-dihydropyrido[3,2-d]pyridazin-3-yl)benzamide]		1.5 nM		≤ 1000 nM	≤ 1000 nM
Cc1ccc(C(=O)NC2CC2)cc1-c1cc2cnnc(-c3ccc(F)cc3Cl)c2n(C)c1=O [Example 13, N-cyclopropyl-3-(8-(2-chloro-4-fluorophenyl)-1-methyl-2-oxo-1,2-dihydropyrido[3,2-d]pyridazin-3-yl)-4-methylbenzamide]	≤ 1000 nM	2.8 nM	≤ 1000 nM		
